Where a name gives a salt, the structure may show the parent alone. Values belong to the molecule of their own block, whether it stands above or below them.
How the values were obtained:
[1] = target: T1, ATP-dependent translocase ABCB1 (Homo sapiens, UniProt P08183); assay: Inhibition of P-gp (unknown origin)
[2] = target: T1, ATP-dependent translocase ABCB1; assay: Inhibition of P-gp in human K562/A02 cells assessed as rescue of intracellular Rhodamine 123 accumulation at 5 uM incubated for 5 to 120 mins and measured by flow cytometry analysis; assay type: cell-based; conditions: k562/a02, 5 µM, time 5-120 min
[3] = Cytotoxicity against dog MDCK-II-BCRP cells after 48 hrs by MTT assay; assay type: functional, cell-based; conditions: Canis lupus familiaris
K562 = assay: Cytotoxicity against human K562 cells after 48 hrs by MTT assay; assay type: functional, cell-based; conditions: K562, 48 h
MDCK = assay: Cytotoxicity against dog MDCK cells after 48 hrs by MTT assay; assay type: functional, cell-based; conditions: Canis lupus familiaris
A549 = assay: Antiproliferative activity against human A549 cells highly expressing EGFR after 48 hrs by MTT assay; assay type: functional, cell-based; conditions: A549, 48 h
K562/A02 = assay: Cytotoxicity against human K562/A02 cells after 48 hrs by MTT assay; assay type: functional, cell-based; conditions: K562/A02, 48 h
[4] = AUC (0 to t) in male Sprague-Dawley rat at 20 mg/kg,po pretreated with 3-4-chloropheny1-N-4-2-morpholinoethylpheny1-4-oxo-3,4-dihydrophthalazine-1-carboxamide at 10 mg/kg measured by LC/MS analysis; assay type: ADME, organism-based; parameters: dose 20 mg/kg, route po; conditions: in vivo
[5] = Apparent permeability of compound in human Caco-2 cells from apical to basal after 30 mins by LC-MS/MS analysis; assay type: ADME, cell-based
[6] = Cmax in male Sprague-Dawley rat at 20 mg/kg,po measured by LC/MS analysis; assay type: ADME, organism-based; parameters: dose 20 mg/kg, route po; conditions: in vivo
[7] = Apparent permeability of compound in human Caco-2 cells from basal to apical after 120 mins by LC-MS/MS analysis; assay type: ADME, cell-based
[8] = Apparent permeability of compound in human Caco-2 cells from basal to apical after 30 mins by LC-MS/MS analysis; assay type: ADME, cell-based
[9] = Tmax in male Sprague-Dawley rat at 20 mg/kg,po measured by LC/MS analysis; assay type: ADME, organism-based; conditions: in vivo
[10] = Apparent permeability of compound in human Caco-2 cells from basal to apical after 180 mins by LC-MS/MS analysis; assay type: ADME, cell-based
[11] = Apparent permeability of compound in human Caco-2 cells from apical to basal after 60 mins by LC-MS/MS analysis; assay type: ADME, cell-based
[12] = Apparent oral volume of distribution in male Sprague-Dawley rat at 20 mg/kg,po pretreated with 3-4-chloropheny1-N-4-2-morpholinoethylpheny1-4-oxo-3,4-dihydrophthalazine-1-carboxamide at 10 mg/kg measured by LC/MS analysis; assay type: ADME, organism-based; conditions: in vivo
Caco-2 = assay: Cytotoxicity against human Caco-2 cells assessed as reduction in cell viability at 30 uM after 48 hrs by MTT assay; assay type: toxicity, cell-based; conditions: caco-2, 48 h
[13] = Tmax in male Sprague-Dawley rat at 20 mg/kg,po pretreated with 3-4-chloropheny1-N-4-2-morpholinoethylpheny1-4-oxo-3,4-dihydrophthalazine-1-carboxamide at 10 mg/kg measured by LC/MS analysis; assay type: ADME, organism-based; conditions: in vivo
in vivo = conditions: male, Sprague-Dawley, rat, po, 20 mg/kg
[14] = Apparent permeability of compound in human Caco-2 cells from basal to apical after 60 mins by LC-MS/MS analysis; assay type: ADME, cell-based
[15] = Oral bioavailability in male Sprague-Dawley rat at 20 mg/kg,po pretreated with 3-4-chloropheny1-N-4-2-morpholinoethylpheny1-4-oxo-3,4-dihydrophthalazine-1-carboxamide at 10 mg/kg measured by LC/MS analysis; assay type: ADME, organism-based; conditions: in vivo
[16] = Bioavailability in male Sprague-Dawley rat at 5 mg/kg,iv measured by LC/MS analysis; assay type: ADME, organism-based; conditions: in vivo
[17] = Apparent oral clearance in male Sprague-Dawley rat at 20 mg/kg,po pretreated with 3-4-chloropheny1-N-4-2-morpholinoethylpheny1-4-oxo-3,4-dihydrophthalazine-1-carboxamide at 10 mg/kg measured by LC/MS analysis; assay type: ADME, organism-based; conditions: in vivo
[18] = Apparent permeability of compound in human Caco-2 cells from basal to apical after 90 mins by LC-MS/MS analysis; assay type: ADME, cell-based
[19] = Cmax in male Sprague-Dawley rat at 20 mg/kg,po pretreated with 3-4-chloropheny1-N-4-2-morpholinoethylpheny1-4-oxo-3,4-dihydrophthalazine-1-carboxamide at 10 mg/kg measured by LC/MS analysis; assay type: ADME, organism-based; parameters: dose 20 mg/kg, route po; conditions: in vivo
[20] = Apparent permeability of compound in human Caco-2 cells from apical to basal after 120 mins by LC-MS/MS analysis; assay type: ADME, cell-based
[21] = Apparent permeability of compound in human Caco-2 cells from apical to basal after 180 mins by LC-MS/MS analysis; assay type: ADME, cell-based
[22] = Apparent permeability of compound in human Caco-2 cells from apical to basal after 90 mins by LC-MS/MS analysis; assay type: ADME, cell-based

T1 sequence (P08183 whole entry): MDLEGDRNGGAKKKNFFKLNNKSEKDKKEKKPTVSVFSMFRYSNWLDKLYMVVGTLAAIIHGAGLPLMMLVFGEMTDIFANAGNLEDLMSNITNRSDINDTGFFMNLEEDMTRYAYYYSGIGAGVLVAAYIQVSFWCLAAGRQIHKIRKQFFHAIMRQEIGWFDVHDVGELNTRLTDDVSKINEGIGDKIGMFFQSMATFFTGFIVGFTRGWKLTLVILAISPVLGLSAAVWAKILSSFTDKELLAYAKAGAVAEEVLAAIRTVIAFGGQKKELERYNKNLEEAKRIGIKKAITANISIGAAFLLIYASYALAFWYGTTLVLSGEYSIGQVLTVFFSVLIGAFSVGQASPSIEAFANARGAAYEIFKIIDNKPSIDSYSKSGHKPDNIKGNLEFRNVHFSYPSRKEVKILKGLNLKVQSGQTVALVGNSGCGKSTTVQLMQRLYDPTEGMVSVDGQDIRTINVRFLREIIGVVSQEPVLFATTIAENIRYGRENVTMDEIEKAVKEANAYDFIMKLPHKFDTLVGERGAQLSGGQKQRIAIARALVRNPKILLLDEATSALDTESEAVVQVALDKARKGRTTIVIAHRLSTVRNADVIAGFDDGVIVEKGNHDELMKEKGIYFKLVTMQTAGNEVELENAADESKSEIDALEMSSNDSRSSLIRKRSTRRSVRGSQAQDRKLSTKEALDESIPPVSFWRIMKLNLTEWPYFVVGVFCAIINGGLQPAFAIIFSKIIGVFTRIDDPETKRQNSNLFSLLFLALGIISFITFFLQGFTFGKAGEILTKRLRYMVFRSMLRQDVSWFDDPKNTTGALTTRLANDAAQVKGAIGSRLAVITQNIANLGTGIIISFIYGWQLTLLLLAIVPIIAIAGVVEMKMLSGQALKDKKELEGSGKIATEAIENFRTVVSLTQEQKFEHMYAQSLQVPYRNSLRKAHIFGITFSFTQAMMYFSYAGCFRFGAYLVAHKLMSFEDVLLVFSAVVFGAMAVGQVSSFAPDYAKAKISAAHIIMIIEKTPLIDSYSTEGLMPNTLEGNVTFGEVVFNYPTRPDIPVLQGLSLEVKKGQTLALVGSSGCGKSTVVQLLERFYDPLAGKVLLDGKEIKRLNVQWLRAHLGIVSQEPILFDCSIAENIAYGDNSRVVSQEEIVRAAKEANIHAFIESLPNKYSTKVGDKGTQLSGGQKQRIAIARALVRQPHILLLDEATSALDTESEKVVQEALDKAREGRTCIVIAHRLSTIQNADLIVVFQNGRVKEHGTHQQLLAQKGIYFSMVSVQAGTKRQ

EC50 [1]: > 1 µM
inhibition (INH) [2]: Active
SMILES: COc1cc2ncnc(Nc3ccc(F)c(Cl)c3)c2cc1OCCCN1CCOCC1 [GEFITINIB]

IC50 (A549): 69.1 µM
SMILES: O=C(NCCc1cccc(F)c1)c1nn(-c2ccc(Cl)cc2)c(=O)c2ccccc12
IC50 [3]: > 100 µM
IC50 (K562): > 100 µM
IC50 (MDCK): > 100 µM
IC50 (K562/A02): > 100 µM

IC50 (A549): > 100 µM
SMILES: O=C(Nc1ccc(N2CCOCC2)cc1)c1nn(-c2ccc(Cl)cc2)c(=O)c2ccccc12
IC50 [3]: > 100 µM
IC50 (K562): > 100 µM
IC50 (MDCK): > 100 µM
IC50 (K562/A02): > 100 µM

IC50 (A549): > 100 µM
SMILES: O=C(NCCN1CCOCC1)c1nn(-c2ccc(Cl)cc2)c(=O)c2ccccc12
IC50 [3]: > 100 µM
IC50 (K562): > 100 µM
IC50 (MDCK): > 100 µM
IC50 (K562/A02): > 100 µM

The remaining lines, values behind:

SMILES: CC(=O)O[C@H]1C(=O)[C@@]2(C)[C@H]([C@H](OC(=O)c3ccccc3)[C@]3(O)C[C@H](OC(=O)[C@H](O)[C@@H](NC(=O)c4ccccc4)c4ccccc4)C(C)=C1C3(C)C)[C@]1(OC(C)=O)CO[C@@H]1C[C@@H]2O [PACLITAXEL]
AUC(0-t) [4]: 3130 ng·h/mL
Papp A→B at 0.5 h [5]: 0.09 ×10⁻⁶ cm/s
Cmax [6]: 112 ng/mL
Papp B→A at 2 h [7]: 11.1 ×10⁻⁶ cm/s
Papp B→A at 0.5 h [8]: 1.29 ×10⁻⁶ cm/s
Tmax [9]: 2 h
Papp B→A at 3 h [10]: 19.4 ×10⁻⁶ cm/s
Papp A→B at 1 h [11]: 1.02 ×10⁻⁶ cm/s
Vd/F [12]: 16 L
Activity (Caco-2): < 20%
Tmax [13]: 2.51 h
half-life (in vivo): 1.68 h
Papp B→A at 1 h [14]: 2.5 ×10⁻⁶ cm/s
bioavailability [15]: 45.1%
F [16]: 100%
CL/F [17]: 103 mL/min
Papp B→A at 1.5 h [18]: 5.85 ×10⁻⁶ cm/s
Cmax [19]: 652 ng/mL
Papp A→B at 2 h [20]: 2.42 ×10⁻⁶ cm/s
Papp A→B at 3 h [21]: 2.69 ×10⁻⁶ cm/s
Papp A→B at 1.5 h [22]: 1.98 ×10⁻⁶ cm/s

SMILES: COc1cccc2c1C(=O)c1c(O)c3c(c(O)c1C2=O)C[C@@](O)(C(=O)CO)C[C@@H]3O[C@H]1C[C@H](N)[C@H](O)[C@H](C)O1 [DOXORUBICIN HYDROCHLORIDE]
IC50 (K562): 0.92 µM
IC50 (K562/A02): 78.3 µM

SMILES: COc1ccc2c3c([nH]c2c1)[C@H](CC(C)C)N1C(=O)[C@H](CCC(=O)OC(C)(C)C)NC(=O)[C@@H]1C3
IC50 [3]: > 100 µM
IC50 (MDCK): 93.3 µM

SMILES: COc1cc2c(cc1OC)CN(CCc1ccc(NC(=O)c3cc(OC)c(OC)cc3NC(=O)c3cnc4ccccc4c3)cc1)CC2
IC50 [3]: > 100 µM
IC50 (MDCK): > 100 µM
